Assay results as given in the NIST ThermoML archive (doi:10.1021/je0601457).
± gives the expanded uncertainty stated by the source.

Experiment: xn = mol fraction of the nth substance listed

Cc1cnccn1 [2-methylpyrazine] + O=C=O
Fluid (supercritical or subcritical phases), Linear displacement technique
Details | mass density [kg/m3]
294.85 K, 5860 kPa, x1 = 0.033 | 869 ± 35
294.85 K, 6830 kPa, x1 = 0.017 | 749 ± 36
294.85 K, 7760 kPa, x1 = 0.033 | 904 ± 38
294.85 K, 8900 kPa, x1 = 0.017 | 777 ± 37
294.85 K, 13000 kPa, x1 = 0.017 | 821 ± 33
294.85 K, 13690 kPa, x1 = 0.033 | 969 ± 44
294.95 K, 2450 kPa, x1 = 0.857 | 935 ± 37
294.95 K, 3790 kPa, x1 = 0.857 | 942 ± 38
294.95 K, 6860 kPa, x1 = 0.857 | 947 ± 38
294.95 K, 11520 kPa, x1 = 0.857 | 950 ± 38
295.05 K, 3900 kPa, x1 = 0.624 | 948 ± 38
295.05 K, 7000 kPa, x1 = 0.624 | 952 ± 38
295.05 K, 9660 kPa, x1 = 0.624 | 956 ± 38
295.05 K, 14760 kPa, x1 = 0.624 | 965 ± 39
295.35 K, 5310 kPa, x1 = 0.156 | 908 ± 36
295.35 K, 7620 kPa, x1 = 0.156 | 910 ± 36
295.35 K, 9620 kPa, x1 = 0.156 | 911 ± 37
295.45 K, 5450 kPa, x1 = 0.264 | 901 ± 36
295.45 K, 7900 kPa, x1 = 0.264 | 911 ± 36
295.45 K, 12450 kPa, x1 = 0.264 | 926 ± 37
295.45 K, 16590 kPa, x1 = 0.264 | 934 ± 37
295.55 K, 6790 kPa, x1 = 0.122 | 998 ± 40
295.55 K, 8790 kPa, x1 = 0.122 | 1010 ± 40
295.55 K, 10590 kPa, x1 = 0.122 | 1019 ± 41
295.55 K, 14410 kPa, x1 = 0.122 | 1036 ± 41
295.85 K, 7140 kPa, x1 = 0.081 | 779 ± 31
295.85 K, 9760 kPa, x1 = 0.081 | 781 ± 31
295.85 K, 13170 kPa, x1 = 0.081 | 781 ± 31
296.15 K, 7590 kPa, x1 = 0.339 | 964 ± 39
296.15 K, 10550 kPa, x1 = 0.339 | 969 ± 39
296.15 K, 16100 kPa, x1 = 0.339 | 976 ± 39
296.35 K, 6310 kPa, x1 = 0.023 | 607 ± 25
296.35 K, 6660 kPa, x1 = 0.023 | 614 ± 32
296.35 K, 8930 kPa, x1 = 0.023 | 642 ± 33
297.25 K, 5790 kPa, x1 = 0.062 | 854 ± 35
297.25 K, 7550 kPa, x1 = 0.062 | 873 ± 35
297.25 K, 9550 kPa, x1 = 0.062 | 894 ± 36
297.25 K, 12830 kPa, x1 = 0.062 | 914 ± 37
298.85 K, 6860 kPa, x1 = 0.039 | 804 ± 32
298.85 K, 8520 kPa, x1 = 0.039 | 831 ± 33
298.85 K, 11690 kPa, x1 = 0.039 | 873 ± 35
301.55 K, 7930 kPa, x1 = 0.023 | 578 ± 25
301.55 K, 10070 kPa, x1 = 0.023 | 604 ± 25
301.55 K, 11520 kPa, x1 = 0.023 | 620 ± 25
304.15 K, 6790 kPa, x1 = 0.156 | 795 ± 35
304.15 K, 8030 kPa, x1 = 0.156 | 905 ± 37
304.15 K, 10210 kPa, x1 = 0.156 | 906 ± 36
304.15 K, 12210 kPa, x1 = 0.156 | 911 ± 36
304.45 K, 7140 kPa, x1 = 0.091 | 913 ± 37
304.45 K, 7830 kPa, x1 = 0.122 | 970 ± 39
304.45 K, 8660 kPa, x1 = 0.091 | 927 ± 37
304.45 K, 10170 kPa, x1 = 0.091 | 940 ± 38
304.45 K, 10660 kPa, x1 = 0.122 | 989 ± 40
304.45 K, 13690 kPa, x1 = 0.122 | 1006 ± 40
304.55 K, 5690 kPa, x1 = 0.264 | 882 ± 36
304.55 K, 6660 kPa, x1 = 0.264 | 885 ± 35
304.55 K, 10380 kPa, x1 = 0.264 | 896 ± 36
304.55 K, 13620 kPa, x1 = 0.264 | 907 ± 37
305.05 K, 3620 kPa, x1 = 0.624 | 922 ± 37
305.05 K, 5000 kPa, x1 = 0.624 | 926 ± 37
305.05 K, 7480 kPa, x1 = 0.624 | 931 ± 37
305.05 K, 10860 kPa, x1 = 0.624 | 937 ± 37

Liquid, linear displacement
Details | mass density [kg/m3]
294.85 K, x1 = 0.017 | 721 ± 37
294.85 K, x1 = 0.033 | 864 ± 36
294.95 K, x1 = 0.857 | 930 ± 37
295.05 K, x1 = 0.624 | 944 ± 38
295.35 K, x1 = 0.156 | 906 ± 36
295.45 K, x1 = 0.264 | 883 ± 35
295.55 K, x1 = 0.122 | 947 ± 38
295.85 K, x1 = 0.081 | 779 ± 32
296.15 K, x1 = 0.339 | 928 ± 37
296.35 K, x1 = 0.023 | 599 ± 25
297.25 K, x1 = 0.062 | 845 ± 35
298.85 K, x1 = 0.039 | 787 ± 32
301.55 K, x1 = 0.023 | 549 ± 22
304.15 K, x1 = 0.156 | 901 ± 36
304.45 K, x1 = 0.091 | 901 ± 37
304.45 K, x1 = 0.122 | 954 ± 38
304.55 K, x1 = 0.264 | 881 ± 35
